Article PMC10257182, “Discovery of senolytics using machine learning” (Nature Communications, 2023)
Like-named read-outs stand apart in the source and are kept apart here.

Assays:
Format in all cases: cell-based, human
[1] = system: senescent A549 cells (etoposide-induced); assay: Nuclei count senolytic assay, therapy-induced senescence (TIS) model, senescent cells; conditions: Homo sapiens, A549, Senescent cells, mean, read-out: Mean % Cell Survival
Summary of the method: (§1)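 Nuclei counted by Hoechst 33342 imaging after fixation, following 72 h treatment with compound at 10 nM–10 μM (10-point […], triplicates). Targets were control A549 cells and A549 rendered senescent by 48 h 100 μM etoposide plus 3 days recovery.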

[2] = system: non-senescent control A549 cells; assay: Nuclei count senolytic assay, TIS model, non-senescent control cells; conditions: Homo sapiens, A549, Control cells, mean, read-out: Mean % Cell Survival
Summary of the method: as §1

[3] = system: senescent IMR90 ER:RAS cells (4-OHT-induced); assay: Nuclei count (Hoechst, high content imaging) senolytic assay, oncogene-induced senescence (OIS) model, senescent cells; conditions: Homo sapiens
Summary of the method: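 Senolytic read-out as total nuclei per well by automated Hoechst imaging after 72 h compound exposure (10 μM to 10 nM, 10-point […], triplicate), relative to untreated controls. Paired cultures: IMR90 ER:RAS kept non-senescent or made senescent with 100 nM final 4-OHT; ouabain served as positive control.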

O=c1cc(-c2ccc(O)cc2)oc2cc(O)c(O)c(O)c12 [Scutellarein, scutellarein]
viability at 10 µM ([1]; log (dose) [M] -5): 108% | viability at 4.68 µM ([1]; log (dose) [M] -5.33): 104% | viability at 2.19 µM ([1]; log (dose) [M] -5.66): 105% | viability at 1 µM ([1]; log (dose) [M] -6): 135% | viability at 0.468 µM ([1]; log (dose) [M] -6.33): 106% | viability at 0.219 µM ([1]; log (dose) [M] -6.66): 103% | viability at 0.1 µM ([1]; log (dose) [M] -7): 81.8% | viability at 0.0468 µM ([1]; log (dose) [M] -7.33): 88.6% | viability at 0.0219 µM ([1]; log (dose) [M] -7.66): 97.4% | viability at 0.01 µM ([1]; log (dose) [M] -8): 91.3% | viability at 10 µM ([2]; log (dose) [M] -5): 111% | viability at 4.68 µM ([2]; log (dose) [M] -5.33): 112% | viability at 2.19 µM ([2]; log (dose) [M] -5.66): 105% | viability at 1 µM ([2]; log (dose) [M] -6): 108% | viability at 0.468 µM ([2]; log (dose) [M] -6.33): 102% | viability at 0.219 µM ([2]; log (dose) [M] -6.66): 109% | viability at 0.1 µM ([2]; log (dose) [M] -7): 102% | viability at 0.0468 µM ([2]; log (dose) [M] -7.33): 99.3% | viability at 0.0219 µM ([2]; log (dose) [M] -7.66): 98.3% | viability at 0.01 µM ([2]; log (dose) [M] -8): 99.7% | viability at 10 µM ([3]; IMR-90, 72 h, Senescent, log (dose) [M] -5, 72 h, mean n=3 (Fig 3C), read-out: Mean % Cell Survival): 124% | viability at 4.677 µM ([3]; IMR-90, 72 h, Senescent, log (dose) [M] -5.33, 72 h, mean n=3 (Fig 3C), read-out: Mean % Cell Survival): 124% | viability at 2.188 µM ([3]; IMR-90, 72 h, Senescent, log (dose) [M] -5.66, 72 h, mean n=3 (Fig 3C), read-out: Mean % Cell Survival): 132% | viability at 1 µM ([3]; IMR-90, 72 h, Senescent, log (dose) [M] -6, 72 h, mean n=3 (Fig 3C), read-out: Mean % Cell Survival): 124% | viability at 0.4677 µM ([3]; IMR-90, 72 h, Senescent, log (dose) [M] -6.33, 72 h, mean n=3 (Fig 3C), read-out: Mean % Cell Survival): 137% | viability at 0.2188 µM ([3]; IMR-90, 72 h, Senescent, log (dose) [M] -6.66, 72 h, mean n=3 (Fig 3C), read-out: Mean % Cell Survival): 132% | viability at 0.1 µM ([3]; IMR-90, 72 h, Senescent, log (dose) [M] -7, 72 h, mean n=3 (Fig 3C), read-out: Mean % Cell Survival): 115% | viability at 0.04677 µM ([3]; IMR-90, 72 h, Senescent, log (dose) [M] -7.33, 72 h, mean n=3 (Fig 3C), read-out: Mean % Cell Survival): 122% | viability at 0.02188 µM ([3]; IMR-90, 72 h, Senescent, log (dose) [M] -7.66, 72 h, mean n=3 (Fig 3C), read-out: Mean % Cell Survival): 106% | viability at 0.01 µM ([3]; IMR-90, 72 h, Senescent, log (dose) [M] -8, 72 h, mean n=3 (Fig 3C), read-out: Mean % Cell Survival): 100% | viability at 4.677 µM ([3]; IMR-90, Senescent cells, log (dose) [M] -5.33, individual replicates, SUP FIG 4C, read-out: % Cell Survival): 129% | viability at 0.2188 µM ([3]; IMR-90, Senescent, log (dose) [M] -6.66, read-out: % Cell Survival): 97.8% | viability at 0.04677 µM ([3]; IMR-90, Senescent, log (dose) [M] -7.33, read-out: % Cell Survival): 91.2% | viability at 0.01 µM ([3]; IMR-90, Senescent, log (dose) [M] -8, read-out: % Cell Survival): 100%
